# Tested on: recombinant AMPK proteins (α1β1γ1, α2β1γ1, α1(1-335), α1(1-394) or α2(1-394))
# Experiment: Scintillation Proximity Assay (SPA), AMPK activation
# Type: biochemical, human
# Conditions: effective concentration of activator for 50% of maximal enzyme activity; 50 nM AMPK, 2 μM ATP, 2 μM biotin-SAMS, 30° C., 2 hours
# Procedure: Recombinant human AMPK α1β1γ1, α2β1γ1 or AMPK α subunit truncations α1(1-335), α1(1-394) and α2(1-394) were constructed, expressed and purified as described previously (Pang, T., Zhang, Z. S., Gu, M., Qiu, B. Y., Yu, L. F., Cao, P. R., Shao, W., Su, M. B., Li, J. Y., Nan, F. J., and Li, J. (2008). Rat liver AMPK heterotrimer enzyme was obtained from Upstate (Billerica, Mass., U.S.A.).
# Scintillation Proximity Assay
# Before the Scintillation Proximity Assay (SPA) assay, 200 nM recombinant AMPK proteins (α1β1γ1, α2β1γ1, α1(1-335), α1(1-394) or α2(1-394)) were fully phosphorylated as described previously (Pang et al., 2008). SPA reactions were performed in 96-well plates at a final volume of 50 μL containing 20 mM Tris-HCl pH 7.5, 5 mM MgCl2, 1 mM DTT, 2 μM biotin-SAMS, 2 μM ATP, 0.2 μCi/well [γ-^33P]ATP, and various amount of activator. Reactions were initiated by the addition of 50 nM recombinant AMPK proteins to the reaction solutions and incubated at 30° C. for 2 hours. After that, reactions were terminated by the addition of 40 μL stop solution containing 80 μg streptavidin-coated SPA beads per well, 50 mM ED TA, 0.1% Triton X-100 in PBS, pH 7.5 and incubated for 1 hour. Finally, a 160 μL suspension solution containing 2.4 M CsCl, 50 mM EDTA, and 0.1% Triton X-100 in PBS (pH 7.5) was added to the reaction solution to suspend SPA beads completely. SPA signals were determined with a Wallac MicroBeta plate counter (PerkinElmer) 30 min later for calculation of the amount of product formed. The amount of products formed in 2 hour was plotted against activator concentrations to determine the effective concentration of the activator (EC50) required for 50% of maximal enzyme activity.
row,EC50 [µM],Compound
1,15.1,"CC1(C)CC(c2cc(Cl)ccc2F)Nc2ccc(C(=O)NC3CCC3)cc21 (stereo not shown) [Example 67, 2-(5-Chloro-2-fluoro-phenyl)-4,4-dimethyl-1,2,3,4-tetrahydro-quinoline-6-carboxylic acid cyclobutylamide]"
2,1.56,"CC(CO)(CO)NC(=O)c1ccc2c(c1)C(C)(C)CC(c1cccc(N3CCOCC3)c1)N2 (stereo not shown) [Example 68, 4,4-Dimethyl-2-(3-morpholin-4-yl-phenyl)-1,2,3,4-tetrahydro-quinoline-6-carboxylic acid (2-hydroxy-1-hydroxymethyl-1-methyl-ethyl)-amide]"
3,4.18,"O=C(NC1CCC1)c1ccc2c(c1)C1(CCCC1)CC(c1ccc(F)c(Cl)c1)N2 (stereo not shown) [Example 69, 2-(3-Chloro-4-fluoro-phenyl)-spiro(cyclopentane-1,4′-1′,2′,3′,4′-tetrahydroquinoline)-6-carboxylic acid cyclobutylamide]"
4,9.17,"CCC1(C)CC(c2ccc(F)c(Cl)c2)Nc2ccc(C(=O)NC3CCC3)nc21 (stereo not shown) [Example 70, 6-(3-Chloro-4-fluoro-phenyl)-8-ethyl-8-methyl-5,6,7,8-tetrahydro-[1,5]naphthyridine-2-carboxylic acid cyclobutylamide]"
